Test results reported in ChEMBL document CHEMBL1201862, “PubChem BioAssay data set” (2004).
The source made the active and inactive calls.

Experiments:
Protein skinhead-1 = target: T1, Protein skinhead-1 (Caenorhabditis elegans, UniProt P34707); assay type: functional
T1 sequence (P34707 whole entry): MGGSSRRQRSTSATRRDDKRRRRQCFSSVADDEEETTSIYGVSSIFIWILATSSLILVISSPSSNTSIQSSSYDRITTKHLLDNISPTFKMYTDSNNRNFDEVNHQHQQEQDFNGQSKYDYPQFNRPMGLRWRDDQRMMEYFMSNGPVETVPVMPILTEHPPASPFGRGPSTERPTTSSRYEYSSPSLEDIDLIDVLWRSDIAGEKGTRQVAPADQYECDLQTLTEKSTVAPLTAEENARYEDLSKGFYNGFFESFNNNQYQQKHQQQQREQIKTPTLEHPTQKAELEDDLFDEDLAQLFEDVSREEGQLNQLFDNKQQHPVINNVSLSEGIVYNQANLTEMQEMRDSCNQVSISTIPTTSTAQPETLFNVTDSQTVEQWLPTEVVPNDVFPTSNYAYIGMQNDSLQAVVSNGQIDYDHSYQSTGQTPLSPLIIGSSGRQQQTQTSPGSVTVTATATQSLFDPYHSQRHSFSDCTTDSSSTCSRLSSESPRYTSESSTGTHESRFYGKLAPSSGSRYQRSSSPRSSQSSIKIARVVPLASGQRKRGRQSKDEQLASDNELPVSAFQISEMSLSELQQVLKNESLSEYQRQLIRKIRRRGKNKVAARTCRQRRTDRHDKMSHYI

H9c2 = assay: cells; assay type: functional, cell-based; conditions: Rattus norvegicus, H9c2, Myocardium;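 also: confirmatory concentration-response retest of ultra-high-throughput screening hits for modulation of myocardial damage; cell death induced by hydrogen peroxide oxidative stress; compound pretreatment for 60 min then peroxide exposure for 2 h; potency is for protecting the cells against peroxide damage rather than for killing them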
[1] = growth suppression of beta-catenin-knockout colon cells, dose response, cell-based, HCT116, human colon tumor (AID 1045); assay type: functional;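 also: HCT116 colon tumor cells with beta catenin knocked out; cells exposed to compound for 60 hours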
[2] = Luminescence Cell-Based Dose Retest to Confirm Inhibitors of Cancer Stem Cells. [Related pubchem assays (depositor defined):AID2717, AID2721]; assay type: functional; conditions: Homo sapiens
[3] = target: Heat shock protein HSP 90-alpha (Homo sapiens, UniProt P07900); assay type: functional, organism-based
[4] = growth suppression of PTEN-null colon cells, dose response, cell-based, HCT116 PTEN knockout (AID 1047); assay type: functional;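 also: HCT116 colon tumor cells with PTEN knocked out; cells exposed to compound for 60 hours before readout; potency for loss of cell viability measured by luminescence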
INS1 = assay: beta cell apoptosis inhibitors, cytokine rescue, dose response, luminescence, retest (AID 449756); assay type: functional, cell-based; conditions: Rattus norvegicus;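 also: cell death triggered by IL-1 beta plus TNF-alpha plus IFN-gamma mixture; protective hits raise ATP signal compared with cytokine alone wells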
[5] = inhibitors of firefly luciferase expression or activity, dose response, H4 neuroglioma cells, luminescence (AID 1990); assay type: functional, cell-based
[6] = inhibitors of SNCA 5'UTR-driven reporter translation, confirmation, H4 neuroglioma cells, luminescence (AID 1988); assay type: functional, cell-based
[7] = Luminescence Cell-Based Dose Response HTS to Identify Inhibitors of 5'UTR Stem-Loop Driven Prion Protein mRNA Translation in H4 Neuroglioblastoma Cells. [Related pubchem assays: 1827 (Project Summary), 1813 (Primary HTS)]; assay type: functional
[8] = Shn3 3'UTR reporter inhibitors, dose response, cell-based, Clone20 osteoblasts, firefly luciferase, cherry-picked (AID 624132); assay type: functional;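 also: firefly luciferase luminescence from reporter carrying the Shn3 3'UTR in osteoblasts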
[9] = control 3'UTR Renilla luciferase suppression, dose response, counter-screen for Shn3 inhibitor project, cell-based, Clone20-Shn3RL, cherry-picked (AID 624133); assay type: functional
[10] = target: T2, Calpain-2 catalytic subunit (Sus scrofa, UniProt P43367); assay: pig calpain II inhibitor potency, dose response, biochemical, fluorogenic peptide substrate (AID 1420); assay type: functional
T2 sequence (P43367 whole entry): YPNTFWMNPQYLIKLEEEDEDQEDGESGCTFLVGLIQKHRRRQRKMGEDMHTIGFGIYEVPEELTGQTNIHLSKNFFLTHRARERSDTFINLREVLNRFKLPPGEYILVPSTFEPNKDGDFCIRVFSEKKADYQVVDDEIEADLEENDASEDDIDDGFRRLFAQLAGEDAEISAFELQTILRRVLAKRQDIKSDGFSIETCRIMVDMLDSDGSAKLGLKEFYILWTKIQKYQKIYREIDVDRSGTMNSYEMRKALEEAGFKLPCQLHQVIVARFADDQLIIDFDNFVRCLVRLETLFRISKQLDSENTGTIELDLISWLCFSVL

Cytochrome P450 2C19 = Cytochrome P450 2C19 (Homo sapiens, UniProt P33261); assay: Cytochrome panel assay with activity outcomes. Panel member name: p450-cyp2c19 Compounds with AC50 equal or less than 10 uM are considered active; assay type: functional
Chain of Cytochrome P450 2C19 (P33261 whole entry): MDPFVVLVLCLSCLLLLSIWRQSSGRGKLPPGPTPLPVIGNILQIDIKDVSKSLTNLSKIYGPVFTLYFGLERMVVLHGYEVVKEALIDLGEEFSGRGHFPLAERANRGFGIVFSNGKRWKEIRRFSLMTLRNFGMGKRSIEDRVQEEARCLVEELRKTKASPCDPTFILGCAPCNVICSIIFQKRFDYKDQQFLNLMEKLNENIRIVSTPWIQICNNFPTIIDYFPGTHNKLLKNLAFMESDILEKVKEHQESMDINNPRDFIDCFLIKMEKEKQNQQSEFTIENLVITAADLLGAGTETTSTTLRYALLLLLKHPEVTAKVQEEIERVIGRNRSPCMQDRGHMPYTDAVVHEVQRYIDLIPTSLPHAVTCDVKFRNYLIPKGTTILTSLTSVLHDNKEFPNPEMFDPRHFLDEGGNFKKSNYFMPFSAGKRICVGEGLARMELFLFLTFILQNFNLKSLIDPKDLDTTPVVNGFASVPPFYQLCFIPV

Cytochrome P450 3A4 = Cytochrome P450 3A4 (Homo sapiens, UniProt P08684);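 also: CYP3A4 tested as one member of a cytochrome P450 panel screen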
Chain of Cytochrome P450 3A4 (P08684 whole entry): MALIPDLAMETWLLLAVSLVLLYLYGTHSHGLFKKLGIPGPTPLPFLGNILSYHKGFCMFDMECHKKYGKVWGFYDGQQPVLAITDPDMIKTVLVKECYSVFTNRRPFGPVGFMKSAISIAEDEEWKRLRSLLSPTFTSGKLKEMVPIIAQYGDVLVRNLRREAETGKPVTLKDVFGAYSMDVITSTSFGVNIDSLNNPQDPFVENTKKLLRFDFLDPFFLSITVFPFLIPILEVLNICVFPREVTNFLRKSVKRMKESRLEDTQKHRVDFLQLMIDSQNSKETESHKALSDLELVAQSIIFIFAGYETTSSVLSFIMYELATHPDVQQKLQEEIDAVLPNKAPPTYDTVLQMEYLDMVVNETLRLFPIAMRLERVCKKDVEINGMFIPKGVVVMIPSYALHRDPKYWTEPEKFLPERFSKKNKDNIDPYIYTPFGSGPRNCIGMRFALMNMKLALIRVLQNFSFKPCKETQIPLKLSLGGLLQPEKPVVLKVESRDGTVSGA

[11] = HEp-2 cell cytotoxicity, dose response, cytotoxicity control for RSV inhibitor project, HTS (AID 2410); assay type: functional; conditions: human respiratory syncytial virus
[12] = target: T3, Heat shock factor protein 1 (Mus musculus, UniProt P38532); assay: HSF1 potentiators in luciferase reporter cells, confirmation, cell-based, NIH3T3, luminescence, dose retest (AID 435004); assay type: functional;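 also: stress induced by proteasome inhibitor MG132 added 30 min after compound; luciferase reporter driven by HSF1 response element in NIH3T3 cells; actives raise luminescence as potentiators of the MG132 stress response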
T3 sequence (P38532 whole entry): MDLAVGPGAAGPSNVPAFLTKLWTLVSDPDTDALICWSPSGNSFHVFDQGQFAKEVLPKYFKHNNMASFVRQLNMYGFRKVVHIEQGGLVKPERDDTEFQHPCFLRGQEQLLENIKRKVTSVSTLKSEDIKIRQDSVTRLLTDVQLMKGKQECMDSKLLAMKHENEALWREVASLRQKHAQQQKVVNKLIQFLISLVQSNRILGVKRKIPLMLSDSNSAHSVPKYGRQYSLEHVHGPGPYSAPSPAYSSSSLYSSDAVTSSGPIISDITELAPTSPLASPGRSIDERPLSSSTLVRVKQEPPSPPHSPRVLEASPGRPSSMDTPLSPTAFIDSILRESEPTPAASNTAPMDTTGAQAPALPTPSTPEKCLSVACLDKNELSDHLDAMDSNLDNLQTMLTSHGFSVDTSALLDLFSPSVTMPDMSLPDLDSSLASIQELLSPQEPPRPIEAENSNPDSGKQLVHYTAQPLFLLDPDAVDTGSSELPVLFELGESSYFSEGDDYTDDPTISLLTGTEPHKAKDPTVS

[13] = cytotoxicity toward NIH3T3 fibroblasts, dose response, counter-screen, cell-based, ATP luminescence, mouse fibroblasts (AID 2010); assay type: functional;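 also: cells exposed to compound for about 90 hours before reading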
[14] = inhibitors of intracellular T. cruzi replication, confirmation, NIH3T3 host cells, beta-gal luminescence (AID 2044); assay type: functional, cell-based;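 also: intracellular parasites grown in NIH/3T3 mouse fibroblasts as host cells; luminescent beta-galactosidase reporter signal from transgenic T. cruzi replicating inside host cells; inhibitors lower the luminescence signal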
[15] = target: FAD-linked sulfhydryl oxidase ALR (Homo sapiens, UniProt P55789); assay: inhibitors of human ALR sulfhydryl oxidase, dose response, biochemical, H2O2 detection, luminescence, cherry-pick (AID 493248)
Chain of FAD-linked sulfhydryl oxidase ALR (P55789 whole entry): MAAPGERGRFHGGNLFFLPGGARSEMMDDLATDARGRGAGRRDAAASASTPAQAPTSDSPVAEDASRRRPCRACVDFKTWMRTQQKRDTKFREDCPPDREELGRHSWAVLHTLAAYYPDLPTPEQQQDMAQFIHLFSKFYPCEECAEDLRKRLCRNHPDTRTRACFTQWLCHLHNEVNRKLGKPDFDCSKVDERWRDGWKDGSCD

Structure (SMILES): CN(CCCN1CCOCC1)C(=O)c1cc(COc2cccc(C(F)(F)F)c2)on1
- IC50 (Protein skinhead-1): > 100 µM (inactive)

Structure (SMILES): CC(OC(=O)Cn1[nH]c(=O)c2ccccc2c1=O)C(=O)Nc1ccc(F)cc1Cl (configuration not stated)
- IC50 (H9c2): > 79 µM (inactive)

Structure (SMILES): Cc1cccc(Nc2nc(N)c([N+](=O)[O-])c(N3CC(C)CC(C)C3)n2)c1 (configuration not stated)
- EC50 [1]: 15.1 µM (active)
- AC50 [2]: 6.36 µM (active)
- AC50 [3]: 7.38 µM (active)
- EC50 [4]: 13.1 µM (active)
- AC50 (INS1): 8.89 µM (active)

Structure (SMILES): Clc1ccc(Cn2cc(/C=N/n3cnnc3)c3ccccc32)cc1
- EC50 [5]: 14.6 µM (active)
- EC50 [6]: 13.1 µM (active)
- EC50 [7]: > 120 µM (not active)

Structure (SMILES): O=S(=O)(NC1CCCCCC1)c1ccc(Br)s1
- AC50 [3]: 17.2 µM (active)

Structure (SMILES): S=C(Nc1ccccc1)Nc1ccc(OCc2ccc(Cl)cc2Cl)cc1
- AC50 [8]: 405 nM (active)
- AC50 [9]: 0.406 µM (active)

Structure (SMILES): Cc1cccc(-[n+]2c(-c3cccc(Br)c3)[nH]c3nc4ccccc4nc32)c1
- EC50 [5]: 13.2 µM (active)
- EC50 [6]: 10.5 µM (active)
- EC50 [7]: 13.7 µM (active)

Structure (SMILES): COc1cccc(C(=O)Nc2cccc(-c3nnc(-c4ccco4)o3)c2)c1
- IC50 (H9c2): 28.2 µM (active)
- IC50 [10]: > 50 µM (not active)

Structure (SMILES): Fc1ccc(CSc2ccc3nnc(-c4cccnc4)n3n2)cc1
- IC50 (H9c2): > 79 µM (inactive)

Structure (SMILES): COc1ccc(Cc2nnc(O)c3ccccc23)cc1OC
- IC50 (H9c2): 7.28 µM (active)
- AC50 (Cytochrome P450 2C19): 31.6 µM (inconclusive)
- AC50 (Cytochrome P450 3A4): 22.4 µM (inconclusive)

Structure (SMILES): COc1ccc(-c2cc(=O)oc3cc(OCC(=O)N(C)C)ccc23)cc1
- IC50 (Protein skinhead-1): > 100 µM (inactive)

Structure (SMILES): COc1ccc(-c2csc(/C(C#N)=C/Nc3cc4oc5ccccc5c4cc3OC)n2)cc1
- EC50 [5]: > 120 µM (not active)
- EC50 [6]: > 120 µM (not active)
- EC50 [7]: 91.7 µM (active)

Structure (SMILES): Cc1ccc(C2=NC(C)(C)N=C2SCC(=O)Nc2ccc(Cl)cc2)cc1
- CC50 [11]: 30.5 µM (active)
- AC50 [3]: 15.1 µM (active)

Structure (SMILES): COc1cccc(-c2noc(-c3ccoc3C)n2)c1
- IC50 (Protein skinhead-1): 86.4 µM (inactive)

Structure (SMILES): CC(=O)Nc1ccc(S(=O)(=O)NCc2ccc3c(c2)cc(C)n3C)cc1
- IC50 (Protein skinhead-1): > 100 µM (inactive)

Structure (SMILES): Cc1ccc(C)c(NC(=O)/C(C#N)=C/c2ccc[nH]2)c1
- IC50 (Protein skinhead-1): > 100 µM (inactive)

Structure (SMILES): C=Cn1ccnc1P(=S)(c1ccc2c(c1)c1ccccc1n2CC)c1nccn1C=C
- EC50 [1]: 4.28 µM (active)
- AC50 [2]: 1.5 µM (active)
- EC50 [4]: 4.12 µM (active)

Structure (SMILES): Cc1nn(-c2ccccc2)c(N2CCCC2)c1/C=N/NC(=O)c1cc(-c2ccccn2)nc2ccccc12
- IC50 (H9c2): > 79 µM (inactive)

Structure (SMILES): O=C(c1ccccc1Br)N1CCN(c2ccccc2)CC1
- EC50 [12]: > 260 µM (inactive)

Structure (SMILES): Cc1cc(S(=O)(=O)NCc2ccccc2)ccc1OCC(=O)Nc1cccc([N+](=O)[O-])c1
- EC50 [1]: 14.9 µM (active)
- EC50 [4]: 13 µM (active)

Structure (SMILES): O=C1/C(=C/c2ccccc2)CCCc2ccccc21
- IC50 (Protein skinhead-1): 17.9 µM (active)

Structure (SMILES): Cn1c(CNc2cccc(Cl)c2)nnc1SCC#N
- EC50 [12]: > 260 µM (inactive)

Structure (SMILES): CCOc1cc(CNCCSc2nnnn2C)cc(Br)c1OCc1ccccc1F
- EC50 [13]: > 60 µM (not active)
- EC50 [14]: 2.13 µM (active)
- IC50 (Protein skinhead-1): 24.1 µM (active)

Structure (SMILES): Cn1c(-n2c(CCCN3C(=O)c4ccccc4C3=O)nc3ccccc3c2=O)nc2ccccc21
- IC50 (H9c2): 15.3 µM (active)

Structure (SMILES): Cc1ccc(C)c(Nc2nc3ccc(C)cc3n3cnnc23)c1
- EC50 [5]: 14.9 µM (active)
- EC50 [6]: > 120 µM (not active)
- EC50 [7]: > 120 µM (not active)

Structure (SMILES): CN(CC(=O)NCc1ccc2c(c1)OCO2)S(=O)(=O)c1ccc(Br)s1
- AC50 [9]: 28.2 µM (active)

Structure (SMILES): COc1cccc(C2C([N+](=O)[O-])=C(N)Oc3c2c(=O)oc2ccccc32)c1 (configuration not stated)
- EC50 [12]: > 260 µM (inactive)

Structure (SMILES): O=C1/C(=C/c2cccnc2)CCC/C1=C\c1cccnc1
- EC50 [1]: 1.09 µM (active)
- EC50 [4]: 1.43 µM (active)
- AC50 (INS1): 3.04 µM (active)

Structure (SMILES): Cn1c(-c2ccc(Cl)cc2)cnc1N
- IC50 (H9c2): > 79 µM (inactive)

Structure (SMILES): O=C(CCc1nc(O)c2ccccc2n1)NNC(=O)c1cccc(Cl)c1
- IC50 (H9c2): > 79 µM (inactive)

Structure (SMILES): Cc1ccc2nc(NC(=O)/C=C/c3ccc4c(c3)OCO4)sc2c1
- EC50 [1]: 4.66 µM (active)
- EC50 [4]: 4.16 µM (active)
- AC50 (INS1): 3.6 µM (active)

Structure (SMILES): O=C(Nc1ccc(F)cc1)C1CCN(c2ncnc3c2nc2n3CCCCC2)CC1
- EC50 [5]: 17 µM (active)
- EC50 [6]: 15.8 µM (active)
- EC50 [7]: 16.9 µM (active)

Structure (SMILES): O=C(CN1CCCC1)Nc1sc2c(c1C(=O)Nc1ccc(Br)cc1)CCC2
- IC50 (Protein skinhead-1): > 100 µM (inactive)

Structure (SMILES): CCOC(=O)N1CCN(C(=O)CSc2nc(O)c3cnn(-c4ccc(C)cc4)c3n2)CC1
- IC50 (H9c2): 31.6 µM (inactive)

Structure (SMILES): Cc1ccc(NC2c3ncccc3C(=O)N2C2CCCCC2)cc1 (configuration not stated)
- AC50 [15]: 2.07 µM (active)
- EC50 [12]: > 260 µM (inactive)

Structure (SMILES): O=C(Nc1ccc2c(c1)CN(Cc1ccco1)CC2)C1CCCO1 (configuration not stated)
- IC50 (Protein skinhead-1): > 100 µM (inactive)

Structure (SMILES): COc1ccc(C2=Nn3c(nnc3-c3ccccc3)SC2)cc1OC
- EC50 [5]: 54.9 µM (active)
- EC50 [6]: 0.318 µM (active)
- EC50 [7]: > 120 µM (not active)

Structure (SMILES): Nc1nnc(SCC(=O)N2CCN(c3cccc(Cl)c3)CC2)n1-c1ccccc1
- IC50 (Protein skinhead-1): > 100 µM (inactive)

Structure (SMILES): CC(=C/c1ccccc1)/C=N/n1cnnc1
- EC50 [5]: 11 µM (active)
- EC50 [6]: 13.5 µM (active)
- EC50 [7]: 20.4 µM (active)
